Columns and labels:
mHypoE-46 cell line = assay: RNA-sequencing (RNA-seq) of mHypoE-46 exposed to BAP; format: cell-based, mouse; conditions: 100 μM BAP
Experimental: To assess global mRNA gene expression changes, we exposed the mHypoE-46 line to 100 μM BAP for 4 and 16 h and assess mRNA expression via RNA-sequencing (RNA-seq). […] It is already known that a decrease in mTORC1 signaling results in a decrease in Npy through decreases in p70-S6K activity (18-20). […] Specifically, the gene expression of the upstream inhibitors of mTORC1, sestrin2 (Sesn2) (21) and tuberous sclerosis complex 2 (Tsc2) were both increased with BAP; whereas the gene expression of two downstream effectors inhibited by mTORC1, 4e-BP1 (Eif4ebp1) and ULK1 (Ulk1), were increased as well, indicating an overall negative regulation of mTORC1 activity (see FIG. 42A and 42B).

p70-S6K = p70-S6K (Thr389) phosphorylation by Western blot in mHypoE-46; format: cell-based, mouse; conditions: 100 μM BAP for 5, 15, 30, 60 and 90 minutes, serum-starved mHypoE-46
Experimental: mHypoE-46 cells were serum starved in 5.5 mM glucose (LG) DMEM for 1 hour prior to treatment with vehicle (0.1% DMSO), 100 µM BAP or H20, […] 5-Aminoimidazole-4-carboxamide ribonucleotide (AICAR) or 0 mM glucose DMEM. Protein was harvested using 1× cell lysis buffer (Cell Signaling Technologies, Inc, CST) containing protease and phosphatase inhibitors. A total of 30 μg protein was separated on a 12% SDS-polyacrylamide gels and transferred onto PVDF membranes. Membranes were blocked in 5% milk dissolved in Tris-buffered saline with Tween 20 (TBS-T) for 1 h and incubated with primary antibody overnight at 4° C. phospho-AMPKα (Thr172; cat. 2532S, CST), and total AMPKα (cat. 2535S, CST); phospho-p70-S6K (Thr389; cat. 9205S, CST) and total p70-S6K (cat. 9202S, CST); insulin receptor ß (cat. 3025S, CST); phospho-AKT (Ser473; cat. 9271S, CST) and total AKT (cat. 9272S, CST); phospho-ERK1/2 (Thr202/Tyr204; cat. 9101, CST) and total ERK (cat. 4695, CST) were diluted 1:1000 in 5% milk in TBS-T. Membranes were washed and incubated with secondary HRP-linked antirabbit antibody (1:7500 in 5% milk in TBS-T, CST) for 1 h, washed, and imaged using the Signal Fire ECL Reagent (CST) on the iBright 1500 Imaging System (Thermofisher). Protein density was quantified using ImageJ or the iBright Imaging System. […]

[1] = both 4 and 16 h, validated in mHypoE-46

Structure (SMILES): c1ccc(CNc2ncnc3nc[nH]c23)cc1 [BAP, N6-benzylaminopurine]
- 4e-BPI (Eif4ebp I), RNA-seq data 4 h (mHypoE-46 cell line; 4 h): ↑
- S6K (Rps6kbI), RNA-seq data 4 h (mHypoE-46 cell line; 4 h): ns
- Sestrin2 (Sesn2), RNA-seq data 4 h (mHypoE-46 cell line; 4 h): ↑
- TSC2 (Tsc2), RNA-seq data 4 h (mHypoE-46 cell line; 4 h): ns
- ULK I (Ulk I), RNA-seq data 4 h (mHypoE-46 cell line; 4 h): ns
- 4e-BPI (Eif4ebp I), RNA-seq data 16 h (mHypoE-46 cell line; 16 h): ↑
- S6K (Rps6kbI), RNA-seq data 16 h (mHypoE-46 cell line; 16 h): ↓
- Sestrin2 (Sesn2), RNA-seq data 16 h (mHypoE-46 cell line; 16 h): ↑
- TSC2 (Tsc2), RNA-seq data 16 h (mHypoE-46 cell line; 16 h): ↑
- ULK I (Ulk I), RNA-seq data 16 h (mHypoE-46 cell line; 16 h): ↑
- early growth response protein 1 (Egr1) gene expression (mHypoE-46 cell line; [1]): highly downregulated
- early growth response protein 3 (Egr3) gene expression (mHypoE-46 cell line; [1]): highly downregulated
- c-fos gene expression (mHypoE-46 cell line; validated in mHypoE-46): significantly downregulated
- c-jun gene expression (mHypoE-46 cell line; validated in mHypoE-46): significantly downregulated
- p70-S6K (Thr389) phosphorylation (activity) (p70-S6K): significantly downregulated

From patent US20260034135A1, “USE OF N6-BENZYLAMINOPURINE AS AN APPETITE SUPPRESSANT” (THE GOVERNING COUNCIL OF THE UNIVERSITY OF TORONTO, priority 2022, published 2026)
